{
  "source": "patent US8835447B2",
  "about": "“Method for treating androgen receptor positive cancers” (priority 2009, dated 2014)",
  "key": {"[1]": {"system": "AR-expressing PCa cell lines (LNCaP, C4-2, CWR22R)", "assay": "Toxicity to AR-expressing PCa cell lines (colony formation / dose-dependent growth inhibition)", "assay_type": "cell-based, human", "protocol": "Cell Colony Assay: Cells were plated in 24-well plates at a density allowing 6-7 days of exponential growth before confluency. Medium and compound was replaced every 48 hours to minimize the effect of potential compound instability. After 7 days of incubation in the presence of compound, cells were fixed and stained with methylene blue, followed by extraction of the stain with 1% SDS and spectrophotometry at 650 nm. Each assay was run in triplicate and the difference between control and compound-treated wells was determined using Student's t-test.\nDose-dependent inhibition of cell growth: Cells were plated at 1×10^3 cells per well in 96-well plates. Compounds were added in a dose range from 1 to 20000 nM in two-fold increments. Each dose was tested in triplicate. Controls were 0.1% DMSO (no effect on cell viability) and 50 μM 9-aminoacridine (complete cell death). Cells were incubated for 6 days and then fixed and stained with methylene blue, followed by extraction of the stain with 1% SDS and spectrophotometry at 650 nm. The assay was run two times and, based on the results, the inhibitory concentration of compound suppressing cell growth by 50% as compared to DMSO (IC50) was calculated by the sigmoid approximation method using CalcuSyn software (Biosoft, Chembridge, UK). Confidence intervals were calculated for each sigmoid.\nThis Example provides a description of the effect of the selected compounds on the growth of PCa cells. To test the toxicity of the identified AR inhibitors towards cells of different origins, we performed colony formation assays using a single dose of each compound (10 μM) on several PCa (LNCaP, C4-2, CWR22R and DU145) and two non-PCa (HT1080 and HeLa) cell lines (FIG. 2A). […] These compounds were not weaker inhibitors of AR transcriptional activity in CWR22R or C4-2 cells than compounds that inhibited growth of the cells. […]"}, "[2]": {"system": "AR protein in CWR22R cells", "assay": "Western blot of AR protein levels", "assay_type": "cell-based, human", "conditions": "10 mM of hits for 36 hrs", "protocol": "FIGS. 3A-3D depict data showing a that reduction of AR protein levels is associated with toxicity of the selected AR inhibitor hits to PCa cells. […] is a photographic representation of Western blotting of lysates from CWR22R cells treated with […] of the indicated hits for 36 hrs. […] GAPDH antibody was used to control for protein loading. FIG. 3B provides a graphical representation of data showing that, unlike parental CWR22R cells, a clone selected in the presence of c52 (c52R) is resistant to the effects of c52. AR protein expression in the c52R clone of CWR22R is not reduced by c52 treatment. Western blotting of parental and c52-resistant CWR22R cells with or without c52 treatment (10 μM for 36 hrs). FIG. 3C provides a graphical representation of data from analyzing cell viability by methylene blue staining 4 days after compound addition. Error bars—standard deviation between triplicates within experiment. FIG. 3D provides a graphical representation of data showing effects of the selected compounds on cell cycle distribution of CWR22R cells measured by propidium iodide staining of cellular DNA content by fluorescent activated cell sorting. Assay was done twice. Error bars—deviation between two measurements.\nWestern blot analysis. […] Total protein concentration was determined using Dc Protein Assay (BioRad, Hercules, Calif.). […]"}, "Microsomal stability": {"assay": "Microsomal stability", "assay_type": "in vitro ADME", "conditions": "1 hour incubation with rat microsomes", "protocol": "Five hit compounds, representing both the ARTIS and ARTIK categories (c6, c11, c17, c52 and c85), were selected for in vivo tests based on all of the previous assays. Compound c5 was rejected due to very low microsomal stability (<5% after 1 hour incubation with rat microsomes). The toxicity of the compounds was evaluated in a dose escalation assay in which male NIH Swiss mice (n=4) received three sequential intraperitoneal (i.p.) injections of each compound delivered in 3 day intervals. The first dose was 20-fold higher than the in vitro IC50 (20×IC50) for the compound in CWR22R cells recalculated based on mouse weight (see Example 1) and the second and third doses were 50×IC50 and 100×IC50, respectively. On the day after the last injection, half of the mice in each group were sacrificed for gross pathology examination and collection of blood for serum biochemistry assays, which include total protein, glucose, bilirubin, and creatinine levels, activity of liver enzymes, and ion concentrations. The remaining mice were sacrificed and evaluated similarly 7 days after the last compound injection. […] A minor decrease in serum glucose concentration (70-80% of control) was observed on the day after the last compound injection in almost all mice, but glucose levels were normal a week later (data not shown). […]"}},
  "note": "Entries after “also recorded” stand apart in the source; their conditions may differ.",
  "data": [
    {"smiles": "CCCn1c2ccccc2c2cc(C(C)=O)ccc21", "note": "[c52]", "values": [
      {"measurement": "toxicity towards AR-expressing PCa cell lines", "setting": "[1]; colony formation, 10 μM, three AR-expressing PCa cell lines", "result": "different degrees of toxicity; also recorded: kill all PCa cells expressing AR"},
      {"measurement": "degree of toxicity to PCa cells (killing vs reduced growth)", "setting": "[1]; dose-dependent toxicity, by day 7", "result": "kill practically all of the PCa cells in the culture by day 7"},
      {"measurement": "AR protein level in CWR22R cells", "setting": "[2]", "result": "complete disappearance of AR protein"},
      {"measurement": "microsomal stability, compound left", "setting": "Microsomal stability", "result": 17, "unit": "%"}
    ]}
  ]
}
